Test results taken from PubChem BioAssay (NCI).
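How tested: cells in 96-well plates exposed to compound for 48 hours at five concentrations. TGI: total growth inhibition.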

Tested on: HOP-92 NSCLC
Assay: DTP human tumour cell line panel, 48 h

| SMILES | TGI |
| --- | --- |
| c1ccc2c(c1)SC1=C(SC(=C3SC4=C(S3)Sc3ccccc3S4)S1)S2 | > 100 µM |
| O=C1C(Cl)=C(Cl)C(=O)C2=C1C1c3ccccc3C2c2ccccc21 | 43.5 µM |
| Cc1cnc(-n2c(C)nc3cc(Cl)ccc3c2=O)s1 | > 100 µM |
| O=C1Nc2cc(Cl)ccc2C(=O)N2CCC[C@@H]12 | > 100 µM |

Tested on: SF-539 CNS
Assay: DTP human tumour cell line panel, 48 h

| SMILES | TGI |
| --- | --- |
| c1ccc2c(c1)SC1=C(SC(=C3SC4=C(S3)Sc3ccccc3S4)S1)S2 | > 100 µM |
| CC(C)=CCC/C(C)=C/CO | > 100 µM |
| O=C1C(Cl)=C(Cl)C(=O)C2=C1C1c3ccccc3C2c2ccccc21 | 65.9 µM |
| Cc1cnc(-n2c(C)nc3cc(Cl)ccc3c2=O)s1 | 55.3 µM |

Tested on: UACC-257 melanoma
Assay: DTP human tumour cell line panel, 48 h

| SMILES | TGI |
| --- | --- |
| c1ccc2c(c1)SC1=C(SC(=C3SC4=C(S3)Sc3ccccc3S4)S1)S2 | > 100 µM |
| CC(C)=CCC/C(C)=C/CO | > 100 µM |
| O=C1C(Cl)=C(Cl)C(=O)C2=C1C1c3ccccc3C2c2ccccc21 | > 100 µM |
| Cc1cnc(-n2c(C)nc3cc(Cl)ccc3c2=O)s1 | 99.6 µM |
| O=C1Nc2cc(Cl)ccc2C(=O)N2CCC[C@@H]12 | > 100 µM |

Tested on: MDA-MB-231 breast
Assay: DTP human tumour cell line panel, 48 h

| SMILES | TGI |
| --- | --- |
| c1ccc2c(c1)SC1=C(SC(=C3SC4=C(S3)Sc3ccccc3S4)S1)S2 | > 100 µM |
| CC(C)=CCC/C(C)=C/CO | > 100 µM |
| O=C1C(Cl)=C(Cl)C(=O)C2=C1C1c3ccccc3C2c2ccccc21 | 65.2 µM |
| Cc1cnc(-n2c(C)nc3cc(Cl)ccc3c2=O)s1 | > 100 µM |
| O=C1Nc2cc(Cl)ccc2C(=O)N2CCC[C@@H]12 | > 100 µM |

Tested on: SK-MEL-2 melanoma
Assay: DTP human tumour cell line panel, 48 h

| SMILES | TGI |
| --- | --- |
| c1ccc2c(c1)SC1=C(SC(=C3SC4=C(S3)Sc3ccccc3S4)S1)S2 | > 100 µM |
| CC(C)=CCC/C(C)=C/CO | > 100 µM |
| O=C1C(Cl)=C(Cl)C(=O)C2=C1C1c3ccccc3C2c2ccccc21 | > 100 µM |
| Cc1cnc(-n2c(C)nc3cc(Cl)ccc3c2=O)s1 | > 100 µM |
| O=C1Nc2cc(Cl)ccc2C(=O)N2CCC[C@@H]12 | > 100 µM |

Tested on: SK-MEL-5 melanoma
Assay: DTP human tumour cell line panel, 48 h

| SMILES | TGI |
| --- | --- |
| c1ccc2c(c1)SC1=C(SC(=C3SC4=C(S3)Sc3ccccc3S4)S1)S2 | > 100 µM |
| CC(C)=CCC/C(C)=C/CO | > 100 µM |
| O=C1C(Cl)=C(Cl)C(=O)C2=C1C1c3ccccc3C2c2ccccc21 | > 100 µM |
| Cc1cnc(-n2c(C)nc3cc(Cl)ccc3c2=O)s1 | 34 µM |
| O=C1Nc2cc(Cl)ccc2C(=O)N2CCC[C@@H]12 | > 100 µM |

Tested on: SK-MEL-28 melanoma
Assay: DTP human tumour cell line panel, 48 h

| SMILES | TGI |
| --- | --- |
| c1ccc2c(c1)SC1=C(SC(=C3SC4=C(S3)Sc3ccccc3S4)S1)S2 | > 100 µM |
| CC(C)=CCC/C(C)=C/CO | > 100 µM |
| O=C1C(Cl)=C(Cl)C(=O)C2=C1C1c3ccccc3C2c2ccccc21 | > 100 µM |
| Cc1cnc(-n2c(C)nc3cc(Cl)ccc3c2=O)s1 | > 100 µM |
| O=C1Nc2cc(Cl)ccc2C(=O)N2CCC[C@@H]12 | > 100 µM |

Tested on: HCT-15 colon
Assay: DTP human tumour cell line panel, 48 h

| SMILES | TGI |
| --- | --- |
| c1ccc2c(c1)SC1=C(SC(=C3SC4=C(S3)Sc3ccccc3S4)S1)S2 | > 100 µM |
| CC(C)=CCC/C(C)=C/CO | > 100 µM |
| O=C1C(Cl)=C(Cl)C(=O)C2=C1C1c3ccccc3C2c2ccccc21 | > 100 µM |
| Cc1cnc(-n2c(C)nc3cc(Cl)ccc3c2=O)s1 | > 100 µM |
| O=C1Nc2cc(Cl)ccc2C(=O)N2CCC[C@@H]12 | > 100 µM |

Tested on: PC-3 prostate
Assay: DTP human tumour cell line panel, 48 h

| SMILES | TGI |
| --- | --- |
| c1ccc2c(c1)SC1=C(SC(=C3SC4=C(S3)Sc3ccccc3S4)S1)S2 | > 100 µM |
| CC(C)=CCC/C(C)=C/CO | > 100 µM |
| O=C1C(Cl)=C(Cl)C(=O)C2=C1C1c3ccccc3C2c2ccccc21 | > 100 µM |
| Cc1cnc(-n2c(C)nc3cc(Cl)ccc3c2=O)s1 | > 100 µM |
| O=C1Nc2cc(Cl)ccc2C(=O)N2CCC[C@@H]12 | > 100 µM |

Tested on: NCI-H226 lung
Assay: DTP human tumour cell line panel, 48 h

| SMILES | TGI |
| --- | --- |
| c1ccc2c(c1)SC1=C(SC(=C3SC4=C(S3)Sc3ccccc3S4)S1)S2 | > 100 µM |
| CC(C)=CCC/C(C)=C/CO | > 100 µM |
| O=C1C(Cl)=C(Cl)C(=O)C2=C1C1c3ccccc3C2c2ccccc21 | > 100 µM |
| Cc1cnc(-n2c(C)nc3cc(Cl)ccc3c2=O)s1 | 93.8 µM |
| O=C1Nc2cc(Cl)ccc2C(=O)N2CCC[C@@H]12 | 98.2 µM |

Tested on: MOLT-4 leukemia
Assay: DTP human tumour cell line panel, 48 h

| SMILES | TGI |
| --- | --- |
| c1ccc2c(c1)SC1=C(SC(=C3SC4=C(S3)Sc3ccccc3S4)S1)S2 | > 100 µM |
| CC(C)=CCC/C(C)=C/CO | > 100 µM |
| O=C1C(Cl)=C(Cl)C(=O)C2=C1C1c3ccccc3C2c2ccccc21 | > 100 µM |
| Cc1cnc(-n2c(C)nc3cc(Cl)ccc3c2=O)s1 | > 100 µM |

Tested on: TK-10 renal
Assay: DTP human tumour cell line panel, 48 h

| SMILES | TGI |
| --- | --- |
| c1ccc2c(c1)SC1=C(SC(=C3SC4=C(S3)Sc3ccccc3S4)S1)S2 | > 100 µM |
| CC(C)=CCC/C(C)=C/CO | > 100 µM |
| O=C1C(Cl)=C(Cl)C(=O)C2=C1C1c3ccccc3C2c2ccccc21 | > 100 µM |
| Cc1cnc(-n2c(C)nc3cc(Cl)ccc3c2=O)s1 | > 100 µM |
| O=C1Nc2cc(Cl)ccc2C(=O)N2CCC[C@@H]12 | > 100 µM |

Tested on: A498 renal
Assay: DTP human tumour cell line panel, 48 h

| SMILES | TGI |
| --- | --- |
| CC(C)=CCC/C(C)=C/CO | > 100 µM |
| O=C1C(Cl)=C(Cl)C(=O)C2=C1C1c3ccccc3C2c2ccccc21 | > 100 µM |
| Cc1cnc(-n2c(C)nc3cc(Cl)ccc3c2=O)s1 | 61.7 µM |
| O=C1Nc2cc(Cl)ccc2C(=O)N2CCC[C@@H]12 | > 100 µM |

Tested on: SNB-19 CNS
Assay: DTP human tumour cell line panel, 48 h

| SMILES | TGI |
| --- | --- |
| c1ccc2c(c1)SC1=C(SC(=C3SC4=C(S3)Sc3ccccc3S4)S1)S2 | > 100 µM |
| CC(C)=CCC/C(C)=C/CO | > 100 µM |
| O=C1C(Cl)=C(Cl)C(=O)C2=C1C1c3ccccc3C2c2ccccc21 | > 100 µM |
| Cc1cnc(-n2c(C)nc3cc(Cl)ccc3c2=O)s1 | > 100 µM |
| O=C1Nc2cc(Cl)ccc2C(=O)N2CCC[C@@H]12 | > 100 µM |

Tested on: NCI-H460 lung
Assay: DTP human tumour cell line panel, 48 h

| SMILES | TGI |
| --- | --- |
| c1ccc2c(c1)SC1=C(SC(=C3SC4=C(S3)Sc3ccccc3S4)S1)S2 | > 100 µM |
| CC(C)=CCC/C(C)=C/CO | > 100 µM |
| O=C1C(Cl)=C(Cl)C(=O)C2=C1C1c3ccccc3C2c2ccccc21 | 99.2 µM |
